Reference: patent US20040126359A1, “Hedgehog” (priority 2001, published 2004)

Assays:
[1] = tested on: Gli2-/Gli3- mice cells; experiment: Cell cycle / survival analysis in Gli2-/Gli3- mice cells; format: cell-based, mouse; conditions: Shh 10 and 500 ng/ml
Description: Cell survival was measured in Gli2^−/Gli3^− mice cells (i.e. from mice in which one allele each of Gli2 and Gli3 were deleted from the genome) in the presence (10 ng/ml and 500 ng/ml) and absence of Shh;
The CD4^+ T-cells were cultured as above in 48-well plates with and without addition of exogenous Shh or 5E1. At 72 hr post-activation, the cells were spun at 13,000 rpm for 7 min then re-suspended in citrate buffer. Cell cycle analysis was carried out using the Vindelov method (Vindelov et al, 1990). Briefly, the cells were trypsinized (Sigma) to expose the nucleus before being stained with propidium iodide (Sigma). Cell cycle analysis was then performed on an Epics© XL flow cytometer (Beckman Coulter UK Ltd, Bucks, UK). The machine counted 30,000 nuclei in each sample and the software analysed the % of cells in each stage of the cell cycle sub-G1, G1, S phase and G2/M. From these figures, the % of live cells (G1, S and G2/M) was calculated, and from this, the % of live cells in G1 and S/G2 phases.

[2] = tested on: CD4+ T-cells; experiment: Real time PCR of Shh, ptc, Gli1 and bcl-2 transcripts in sub-optimally activated CD4+ T-cells; format: cell-based, mouse
Description: CD4^+ T-cells were cultured as above in 48 well plates with and without addition of exogenous Shh or 5E1. At various time points (24 hr, 48 hr, 72 hr) post-activation, the CD4^+ T-cells were spun at 300 g for 7 mins then resuspended in lysis buffer provided as part of the RNeasy kit used for the RNA isolation (Qiagen Ltd, Crawley, UK). Any contaminating DNA was then digested by treating the RNA with DnaseI (Life Technologies) according to the manufacturer's instructions. In order to check that no contaminating DNA remained, a PCR was carried out using genomic β-actin primers (forward primer 5′-CCACCAACTGGGACACATG-3′ (SEQ ID NO:10) and reverse primer 5′-[…]-3′ (SEQ ID NO:11)) (MWG-Biotech AG). The PCR program was as follows: 35 cycles of 30 secs at 94° C., 1 min at 58° C., 2 mins at 72° C. followed by a 5 min 72° C. extension then 4° C. hold. This was carried out on a PTC-200 Peltier thermal cycler (MJ Research Inc., Massachusetts, USA).
Unless otherwise stated all materials for real time PCR were supplied by Applied Biosytems UK, Cheshire, UK. 400 ng of RNA was reverse transcribed using the Multiscribe RT kit. Samples were incubated for 10 min at 25° C., 40mins at 48° C. then 5 min at 95° C. to allow the reverse transcription to take place. cDNA samples were then diluted 1:5 in nuclease-free water (Promega). The PCR step was carried out using Taqman Universal PCR Mastermix, a primer/probe mix specific to the gene of interest and a primer/probe mix specific to 18s rRNA control reagent. The following primer/probe sequences were used:
These probes were all labelled with the fluorescent dye fam (6-carboxy-fluorescein). The primer/probe mix for 18S was supplied by Applied Biosystems which was labelled with the fluorescent dye vic™. Each cDNA sample was run in duplicate 25 μl volumes on a capped 96-well optical reaction plate. The plate was run in the ABI Prism 7700 sequence detector using SDS software. The PCR conditions were as follows: 50° C. for 2 min, 95° C. for 10 min then 40 cycles of 15 sec at 95° C. and 1 min at 60° C. The software then analysed the data and output a pair of ‘ct’ values for each sample. ‘Ct’ is the number of cycles needed to result in a signal crossing a set threshold. Each sample yielded two ct values, one for the gene of interest and one for the 18S house keeping control. The ct values were then transported to a Microsoft Excel spreadsheet and analysed to give a value representing the relative mRNA levels present for the gene of interest linearly as per the manufacturers instructions.
In order to analyse the mechanisms of Shh amplification of TCR mediated activation in CD4^+ T-cells, the kinetics of expression of components of the Shh signalling pathway and bcl-2 were analysed in activated CD4^+ T-cells in the presence and absence of exogenous Shh. CD4^+ T-cell cultures were set up as before, sub-optimally activated with anti-CD3/CD28 and Shh was added at t=0. RNA was extracted at 24, 48 and 72 hr post-activation. It has been reported that a 2× or greater increase in the transcription of any gene on at least 2 occasions is considered to be significant (Chtanova et al and Granucci et al).

[3] = tested on: human CD4 T-cells; experiment: Proliferation of human CD4 T-cells cultured with Shh N-terminal active peptide (3H thymidine); format: cell-based; conditions: activated CD4+ T-cells; dose dependent
[4] = tested on: human CD8 T-cells; experiment: Proliferation of human CD8 T-cells cultured with Shh N-terminal active peptide (3H thymidine); format: cell-based; conditions: activated CD8+ T-cells; dose dependent
[5] = tested on: CD4+ T-cells; experiment: Two-colour FACS analysis of CD69 and CD25 expression; format: cell-based; conditions: CD4+ T-cells activated 72 hours with anti-CD3 and anti-CD28, Shh 100 ng/ml
[6] = Shh peptide at t=0, 24, 48, 72 hr

Shh peptide: Recombinant mouse Shh amino-terminal peptide (R&D systems); biologically active N-terminal Sonic hedgehog fragment
effect on survival / apoptosis (live cells, sub-G1 pool) [1]: promotes apoptosis
level of transcription of Gli1 vs media only activated cultures [2, 6]: No difference
level of transcription of ptc vs media only activated cultures [2, 6]: No difference
transcription of Shh vs media only activated cultures ([2]; Shh peptide at t=0, 24 hr): significantly reduced
transcription of bcl-2 vs media only activated cultures ([2]; Shh peptide at t=0, 72 hr): significantly increased
Bcl-2 transcripts, time course normalised to 24 hr sample ([2]; in presence of exogenous Shh): increased at 48 hr and at 72 hr
Gli1 transcription, time course normalised to 24 hr sample ([2]; in presence of exogenous Shh): increased at 48 hr and was maintained at 72 hr
Shh transcription, time course normalised to 24 hr sample ([2]; in presence of exogenous Shh): increased both at 48 hr and 72 hr
ptc transcription, time course normalised to 24 hr sample ([2]; in presence of exogenous Shh, 72 hr): marginally higher
incorporation of 3H-thymidine [3]: significantly enhances
incorporation of 3H-thymidine [4]: significantly enhances
CD25 expression in CD3 positive T-cells ([5]; activated only 31.64%): 80.46%
CD69 expression in CD3 positive T-cells ([5]; activated only 33.87%): 70.57%
